Values of other authors in patent US4436732A, “Medicated compound for treating diseases infected by virus of the herpes group” (priority 1981, dated 1984).

Settings: known preparations, background; cited from earlier work

O=c1[nH]cc(F)c(=O)[nH]1 [5-fluorouracyl]
toxicity: rather toxic
